One series concerns the target MPO (Homo sapiens, UniProt P05164). To be noted: 1 U/ml MPO, 100 mM Cl^−, 5 minutes. Here is the method:
Reaction mixtures contained MPO (1 U/ml), NaCl (100 mM), NaSCN (0-400 μM), and sodium phosphate (100 mM, pH 7.0). Reactions were initiated by adding 50 μM H2O2 to the mixture, and stopped 5 minutes later by adding 1 μM catalase to decompose remaining H2O2 to H2O and O2. Blank reactions contained no H2O2. The concentrations of OCl^− and OSCN^−were determined using the taurine chloramine assay. OCl^− and OSCN^− react with taurine to form taurine chloramine. The latter oxidizes yellow 5-thio-2-nitrobenzoic acid (ε412=14,100 M^−1 cm^−1) to colorless 5,5′-dithiobis-2-nitrobenzoic acid. The drop in absorbance at 412 nm (after subtracting the blank) reflects the total concentration of OCl^− plus OSCN^− produced. […] Methionine was added immediately after the addition of catalase but 5 minutes before the taurine chloramine assay. This five minute interval allowed methionine to reduce OCl^−. Unless specified otherwise, all reagents were purchased from Sigma-Aldrich.

The subject of series [1] is human aortic endothelial cells (HAEC). The conditions noted are these: 400 μM SCN^−; GO 5 mU/ml, MPO 1 U/ml. Here is the method:
(§1) (the number of independent trials is indicated in parentheses).
(§2) Four types of cell, Calu-3, Min6 (58), Neuro-2A, and HAEC (Invitrogen Inc.) were plated in 48-well culture plates (3.5×10^4 to 2×10^5 per well). Twenty-four to forty-eight hours later, cells were washed with Earl's balanced salt solution (EBSS) before subsequent studies. EBSS contained: NaCl (116 mM), glucose (5.5 mM), KCl (5.4 mM), CaCl2 (1.8 mM), MgSO4 (2.2 mM), NaH2PO4 (1 mM), and NaHCO3 (26 mM); pH 7.0. […] LPO (1 U/ml) and NaSCN (100 or 400 μM) were added to protect cells from injuries caused by H2O2. For the MPO studies, cells were first incubated for one hour in EBSS containing MPO (1 U/ml). The MPO reaction was initiated by adding 10 mU/ml GO to generate H2O2, and cells were maintained in a 37° C. incubator (5% CO2) for three additional hours. […] After incubation, cells were trypsinized, pelleted, and resuspended in a phosphate buffer solution (PBS), which contains NaCl (137 mM), KCl (2.7 mM), Na2HPO4 (4.3 mM) and KH2PO4 (1.4 mM); pH 7.3. Non-viable cells were identified by staining with 0.2% Trypan blue (Invitrogen, Inc.). Both stained and unstained cells were counted with a hemocytometer in double blind experiments.

Another series relates to Neuro-2A cells. The conditions noted are these: GO 10 mU/ml, MPO 1 U/ml. Here is the method:
as §1, §2

The subject of a further series is Min6 cells. To be noted: 400 μM SCN^−; GO 10 mU/ml, MPO 1 U/ml. The method, then:
as §1, §2

The next series relates to CF mice. The method, then: Mouse pups, weaned at day ˜28, had access to drinking water and solid mouse food. […] All pictures were taken at the same magnification (20× objective). […] In panels C and F, the green, yellow and black arrows point to a villus, a goblet cell and a mucus plug, respectively.
The body length (A) and weight (B) (mean±s.e.m.) of CF and heterozygous mice were determined 30, 60, and 90 days after weaning
FIGS. 7B-G, show standard Alcian Blue-stained (5 μm-thick) sections of large (FIG. 7B-D) and small (FIG. 7E-G) intestines (Alcian Blue specifically stains mucin; http://www.protocol-online.org).
Mouse pups, weaned at day ˜28, had access to drinking water and solid mouse food. […] In FIGS. 7C and 7F, the green, yellow and black arrows point to a villus, a goblet cell and a mucus plug, respectively.
The body length (A) and weight (B) (mean±s.e.m.) of CF and heterozygous mice were determined 30, 60, and 90 days after.

A further series has as its system Calu-3 cells. The series is described as follows: Cell viability assay: H2O2 cytotoxicity in Calu-3 cells. The series is classed as cell-based, human. To be noted: SCN^− alone, GO 20 mU/ml. The method, then:
as §1, §2

For series [2] the following is noted: non-enzymatic reaction; cited from earlier work.
Another series has as its target T1, CFTR (Homo sapiens, UniProt P13569, G551D).
T1 construct: endogenous in cells; host or cells: CF patients (nasal epithelium, sweat glands, lungs)
The conditions noted are these: CF patients with at least one copy of the G551D mutation; Phase II; cited from earlier work.

The subject of a further series is healthy volunteers. The conditions noted are these: Phase 1 single-dose; cited from earlier work.
The next series has as its system CF patients. The conditions noted are these: high doses; cited from earlier work.
[3] abbreviates: single dose of thiocyanate (1 mM).
Where [4] appears, read: 1 mM thiocyanate in drinking water, 30, 60, 90 days after weaning.

Molecules are shown by their SMILES. Where two headings read alike, the source gives them in different places.

Sequence of MPO (P05164 49-745, species assumed): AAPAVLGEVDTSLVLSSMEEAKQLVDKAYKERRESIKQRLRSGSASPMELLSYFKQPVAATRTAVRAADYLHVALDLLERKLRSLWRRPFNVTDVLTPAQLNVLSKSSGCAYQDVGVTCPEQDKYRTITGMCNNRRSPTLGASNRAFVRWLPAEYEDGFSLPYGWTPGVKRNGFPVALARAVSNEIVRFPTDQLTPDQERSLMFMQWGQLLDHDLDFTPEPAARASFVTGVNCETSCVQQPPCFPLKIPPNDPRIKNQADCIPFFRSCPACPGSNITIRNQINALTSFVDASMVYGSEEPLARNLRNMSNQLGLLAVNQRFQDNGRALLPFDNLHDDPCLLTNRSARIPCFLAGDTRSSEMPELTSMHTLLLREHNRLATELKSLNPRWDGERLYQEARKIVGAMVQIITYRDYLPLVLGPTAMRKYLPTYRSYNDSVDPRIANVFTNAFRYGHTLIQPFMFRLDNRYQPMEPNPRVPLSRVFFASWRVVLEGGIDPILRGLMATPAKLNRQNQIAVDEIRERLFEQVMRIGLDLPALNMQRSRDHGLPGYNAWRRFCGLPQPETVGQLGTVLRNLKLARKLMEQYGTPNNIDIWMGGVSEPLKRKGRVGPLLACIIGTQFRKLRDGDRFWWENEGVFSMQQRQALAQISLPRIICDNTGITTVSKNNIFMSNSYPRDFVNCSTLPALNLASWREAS
T1 sequence (P13569 whole entry G551D): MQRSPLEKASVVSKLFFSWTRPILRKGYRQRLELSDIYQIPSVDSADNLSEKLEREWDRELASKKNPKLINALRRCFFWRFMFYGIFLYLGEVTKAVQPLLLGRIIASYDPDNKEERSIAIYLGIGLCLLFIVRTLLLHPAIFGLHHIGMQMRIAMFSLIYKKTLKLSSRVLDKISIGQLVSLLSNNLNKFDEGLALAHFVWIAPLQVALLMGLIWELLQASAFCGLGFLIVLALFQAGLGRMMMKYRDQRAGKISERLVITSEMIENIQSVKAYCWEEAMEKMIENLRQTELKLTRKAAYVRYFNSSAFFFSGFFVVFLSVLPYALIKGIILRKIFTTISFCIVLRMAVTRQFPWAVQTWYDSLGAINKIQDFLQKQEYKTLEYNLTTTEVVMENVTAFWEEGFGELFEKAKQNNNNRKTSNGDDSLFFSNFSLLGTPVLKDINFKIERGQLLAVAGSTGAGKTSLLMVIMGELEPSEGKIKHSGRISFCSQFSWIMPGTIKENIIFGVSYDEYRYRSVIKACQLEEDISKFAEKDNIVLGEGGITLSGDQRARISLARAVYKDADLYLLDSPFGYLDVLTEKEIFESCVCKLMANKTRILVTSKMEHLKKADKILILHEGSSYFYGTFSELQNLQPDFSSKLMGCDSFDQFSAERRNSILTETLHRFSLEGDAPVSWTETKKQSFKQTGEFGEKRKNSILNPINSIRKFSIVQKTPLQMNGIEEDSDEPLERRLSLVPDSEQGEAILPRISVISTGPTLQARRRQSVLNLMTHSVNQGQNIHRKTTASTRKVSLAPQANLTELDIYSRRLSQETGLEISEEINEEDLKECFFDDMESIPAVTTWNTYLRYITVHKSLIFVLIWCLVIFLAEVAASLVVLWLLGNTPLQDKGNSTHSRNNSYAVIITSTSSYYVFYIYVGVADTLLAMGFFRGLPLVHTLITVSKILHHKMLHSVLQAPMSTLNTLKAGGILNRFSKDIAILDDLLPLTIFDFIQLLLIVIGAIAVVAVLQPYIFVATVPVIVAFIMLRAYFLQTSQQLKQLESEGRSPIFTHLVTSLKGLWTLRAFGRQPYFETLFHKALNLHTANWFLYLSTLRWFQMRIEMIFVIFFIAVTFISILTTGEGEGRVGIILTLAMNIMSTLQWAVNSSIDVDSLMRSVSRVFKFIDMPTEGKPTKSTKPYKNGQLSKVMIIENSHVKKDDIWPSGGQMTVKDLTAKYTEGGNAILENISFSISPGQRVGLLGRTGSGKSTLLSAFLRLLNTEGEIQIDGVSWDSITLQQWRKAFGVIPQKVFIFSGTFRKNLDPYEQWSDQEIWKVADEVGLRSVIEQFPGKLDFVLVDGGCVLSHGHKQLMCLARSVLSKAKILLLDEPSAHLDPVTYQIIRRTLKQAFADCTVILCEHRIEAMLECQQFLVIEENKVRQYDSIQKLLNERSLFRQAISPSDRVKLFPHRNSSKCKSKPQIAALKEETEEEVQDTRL

In the case of `N#CS` [SCN^−, thiocyanate], the “inhibition of MPO-catalyzed production of OCl^−” value was “inhibited only slightly, if at all” against MPO (10 μM SCN^−); “partially inhibited” against MPO (50 μM SCN^−); “inhibited almost completely” against MPO (100-400 μM SCN^−). The “production of OSCN^− and OCl^− with increasing SCN^− concentration” value on MPO is listed as “boosted the production of OSCN^− but depressed that of OCl^−”. The “protection for CF piglets” value with CF piglets (given to pig mothers during pregnancy and to piglets after birth, up to 20 mg/kg daily, with or without iodine) is reported as “improved protection”. In the series on CF piglets (setting [3]), the “effect on meconium in CF piglets” value is “loosening meconium”. For the same compound, the “survival of CF piglets” value in the series with CF piglets (setting [3]) was “does not survive them”. Moreover, the “protection against MPO activity” value (in [1]; in the series with Neuro-2A cells (100 μM SCN^−); in the series on Neuro-2A cells (400 μM SCN^−); with Min6 cells) was “virtually fully protected” throughout. Also, in the series with CF mice (1 mM thiocyanate in drinking water (mothers before weaning, pups after weaning)), the “CF mice survived beyond 90 days” value is given as 10 of the 15. In addition, in the series on CF mice (setting [4]), the “body length of CF mice” value is “normalizes”. For the same compound, in the series on CF mice (setting [4]), the “body weight of CF mice” value was “normalizes”. The “survival of CF mice” value with CF mice (oral thiocyanate, 1 mM in drinking water) was “prolongs the survival”. Also, the “protection against H2O2 cell injury” value is given as “Neither SCN^− (100 or 400 μM), nor LPO (1 U/ml) alone provided any significant protection” in the series with Calu-3 cells (100 μM) and “Neither SCN^− (100 or 400 μM), nor LPO (1 U/ml) alone provided any significant protection” in the series with Calu-3 cells (400 μM). In [2], the “second-order rate constant of oxidation by OCl^− to OSCN^−” value is 2.3e+07 M⁻¹ s⁻¹.

As to `CC(C)(C)c1cc(C(C)(C)C)c(NC(=O)c2c[nH]c3ccccc3c2=O)cc1O` [VX-770], on CFTR, the “biological measures of CFTR function (nasal potential difference and sweat chloride)” value is on record as “improvements”; the “clinical measures of pulmonary health (FEV1)” value is reported as “improvements”.

In the case of `O=C(O)c1cccc(-c2noc(-c3ccccc3F)n2)c1` [Ataluren], the “safety, oral availability and tolerability” value in the series on healthy volunteers was “safe, orally available and well tolerated”.

`CC(C)Cc1ccc(C(C)C(=O)O)cc1` (stereo not shown) [ibuprofen]: in the series with CF patients, the CF disease progression result is listed as “slow disease progression”.

These data come from US20130004477A1, “Methods for Treating Inflammation and Oxidative Stress Related Diseases” (priority 2009, published 2013).
